In brackets after ≈: the same amount, converted by molar mass. Several values for one entry are separate records, joined by “and”; a condition that tells them apart may be missing. Equal values may be shown once. Read-outs that look alike come from different tables or passages of the source.
Tests used:
in vitro [1] = conditions: African green monkey
SARS-CoV-2 3CL^pro = SARS-CoV-2 3CL^pro (Severe acute respiratory syndrome coronavirus 2, UniProt P0DTD1); assay: biochemical
SARS-CoV-2 Delta strain = assay: microbe, parasite or virus in culture; format: cell-based
in vivo [2] = conditions: male, C57BL/6J, mouse, po
[3] = tested on: human peripheral blood mononuclear cells (PBMCs)
[4] = tested on: human primary hepatocytes; conditions: human
[5] = tested on: human primary hepatocytes; assay: cells; conditions: Hepatocyte
CYP3A4/5 = assay: in vitro; conditions: human, microsomes
[6] = tested on: Chinese hamster lung (CHL) cells
in vitro [7] = conditions: mouse, plasma
in vivo [8] = conditions: both, SD, rat
[9] = male, C57BL/6J, mouse, in vivo
[10] = tested on: SARS-CoV-2 Omicron strain; assay: microbe, parasite or virus in culture
in vitro [11] = conditions: rat, plasma
[12] = male, C57BL/6J, in vivo
[13] = tested on: human peripheral blood mononuclear cells (PBMCs); assay: cells; conditions: PBMC
[14] = both, cynomolgus monkey, in vivo
in vivo [15] = conditions: both, cynomolgus monkey
[16] = tested on: SARS-CoV-2 Omicron strain
in vivo [17] = conditions: both, Sprague-Dawley, rat
in vitro [18] = conditions: monkey, plasma
[19] = both, cynomolgus monkey, in vivo; remark: listed apart in the source
SARS-CoV-2 WIV04 strain = assay: microbe, parasite or virus in culture; conditions: Severe acute respiratory syndrome coronavirus 2, Vero C1008, read-out: EC50^CP
in vivo [20] = conditions: both, cynomolgus monkey; remark: listed apart in the source
CYP enzymes (all tested) = assay: in vitro; conditions: human
[21] = both, SD, rat, in vivo

## CC(C)(C)NC(=O)N[C@H](C(=O)N1CC2(C[C@H]1C(=O)N[C@H](C#N)C[C@@H]1CCNC1=O)SCCS2)C(C)(C)C [compound 7]
In vitro [1]
  CC50: > 500000 nM
SARS-CoV-2 3CL^pro; concentration 15.63 nM, read-out: inhibition ratio (%)
  inhibition at 0.01563 µM: 28.1%
SARS-CoV-2 3CL^pro; concentration 500.00 nM, read-out: inhibition ratio (%)
  inhibition at 0.5 µM: 97.8%
SARS-CoV-2 Delta strain; Severe acute respiratory syndrome coronavirus 2, Vero C1008, read-out: EC50 (nM) Mean
  EC50: 30000 nM
SARS-CoV-2 Delta strain; read-out: EC50^CP
  EC50: 220 nM

## CC(C)(C)NC(=O)N[C@H](C(=O)N1CC[C@@H](Oc2ccccc2)[C@H]1C(=O)N[C@H](C#N)C[C@@H]1CCNC1=O)C(C)(C)C [compound 4]
SARS-CoV-2 3CL^pro; IC50
  IC50: 6940 nM
SARS-CoV-2 3CL^pro; IC50 (nM)
  IC50: 7170 nM and 7720 nM and 5940 nM
SARS-CoV-2 3CL^pro; concentration 3125.00 nM, read-out: inhibition ratio (%)
  inhibition at 3.125 µM: 31.2%
SARS-CoV-2 3CL^pro; concentration 50000.00 nM, read-out: inhibition ratio (%)
  inhibition at 50 µM: 91.2%
SARS-CoV-2 3CL^pro; concentration 100000.00 nM, read-out: inhibition ratio (%)
  inhibition at 100 µM: 96.8%
SARS-CoV-2 3CL^pro; concentration […], read-out: inhibition ratio (%)
  inhibition at 25 µM: 86%

## CC(C)(C)[C@H](NC(=O)C(F)(F)F)C(=O)N1CC2(C[C@H]1C(=O)N[C@H](C#N)C[C@@H]1CCNC1=O)SCCS2 [compound 9, simnotrelvir]
In vivo [2]
  Cmax: 49300 ng/mL
In vivo [2]; 50 mg/kg
  Cmax: 18500 ng/mL
[3]
  IC50 or CC50: PBMC: > 150000 nM
  toxicity to human PBMCs: no toxicity was observed
413 human kinases
  inhibition of 413 human kinases: no significant inhibitory activities
[4]
  IC50 or CC50: PHHs: > 150000 nM
  toxicity to human hepatocytes: no toxicity was observed
[5]
  IC50: > 150000 nM
CYP3A4/5
  IC50: 30000 nM
CYP3A4/5; […]
  activity at 0.1 µM: 104%
  activity at 1 µM: 101%
  activity at 3.33 µM: 95.4%
CYP3A4/5; […], 10 μM
  activity at 10 µM: 73.9%
CYP3A4/5; […], 33.3 μM
  activity at 33.3 µM: 46.6%
CYP3A4/5; […], 100 μM
  activity at 100 µM: 21.8%
[6]
  chromosome aberration test (CA) result: negative
In vitro [7]
  fraction unbound: 0.217
In vivo [8]; 1000 mg/kg/day
  Cmax: 17000 ng/mL
In vivo [8]; po
  NOAEL: 1000 mg/kg/day
[9]
  time plasma concentration maintained above EC90^total: 24 h
[10]; Severe acute respiratory syndrome coronavirus 2, Vero C1008
  EC50: 38.7 nM
[10]; Severe acute respiratory syndrome coronavirus 2, Vero C1008, read-out: EC50^CP
  EC50: 43 nM
In vitro [11]
  fraction unbound: 0.334
[12]
  exposure in the mouse brains: moderate simnotrelvir exposure
[12]; mouse
  time brain concentration covers EC50^total: > 8 h
  time brain concentration covers EC90^total: more than 2 h
[13]
  IC50: > 150000 nM
[14]
  tolerability in two-week toxicity study: well tolerated
In vivo [15]; 5 mg/kg
  bioavailability: 41.9%
  half-life: 1.7 h
In vivo [15]; iv, 5 mg/kg
  Vd: 1.5 L/kg
  clearance: 20.7 mL/min/kg
In vivo [15]; po
  AUC(0-inf): 17200 ng·h/mL
  AUC(0-t): 17000 ng·h/mL
  Cmax: 2440 ng/mL
  half-life: 2.38 h
In vivo [15]; po, 5 mg/kg
  AUC(0-inf): 1790 ng·h/mL
  AUC(0-t): 1660 ng·h/mL
  Cmax: 625 ng/mL
  half-life: 5.63 h
[16]
  EC50: 44.9 nM
In vivo [17]; 15 mg/kg
  bioavailability: 35.3%
  half-life: 0.45 h
In vivo [17]; iv, 15 mg/kg
  Vd: 1.36 L/kg
  clearance: 59.3 mL/min/kg
In vivo [17]; po
  AUC(0-inf): 9000 ng·h/mL
  AUC(0-t): 8920 ng·h/mL
  Cmax: 2760 ng/mL
  half-life: 1.99 h
In vivo [17]; po, 15 mg/kg
  AUC(0-inf): 1730 ng·h/mL
  AUC(0-t): 1700 ng·h/mL
  Cmax: 1580 ng/mL
  half-life: 1.29 h
In vitro [18]
  fraction unbound: 0.193
[19]
  increase of AUC0-∞ by ritonavir: 9.6 fold
  increase of Cmax by ritonavir: 3.9 fold
CYP3A
  calculated metabolic contribution of CYP3A: 87%
SARS-CoV-2 WIV04 strain
  EC50: 26 nM
In vivo [20]; 600 mg/kg/day
  Cmax: 26400 ng/mL
In vivo [20]; po
  NOAEL: 600 mg/kg/day
CYP enzymes (all tested)
  IC50: ≥ 30000 nM
SARS-CoV-2 Delta strain
  EC90^total: 0.906 µg/mL (≈ 1.65 µM)
SARS-CoV-2 Delta strain; Severe acute respiratory syndrome coronavirus 2, Vero C1008, read-out: EC90^total
  EC90: 0.523 µg/mL
SARS-CoV-2 Delta strain; read-out: EC50^CP
  EC50: 34 nM
SARS-CoV-2 Delta strain; read-out: EC90 (nM), single independent experiment
  EC90: 290 nM and 382 nM
[21]
  tolerability in two-week toxicity study: well tolerated

## CC(C)(C)NC(=O)N[C@H](C(=O)N1C[C@@H](c2ccccc2)C[C@H]1C(=O)N[C@H](C#N)C[C@@H]1CCNC1=O)C(C)(C)C [compound 5]
SARS-CoV-2 3CL^pro; IC50
  IC50: 814 nM
SARS-CoV-2 3CL^pro; IC50 (nM)
  IC50: 883 nM and 880 nM and 679 nM
SARS-CoV-2 3CL^pro; concentration 5000.00 nM, read-out: inhibition ratio (%)
  inhibition at 5 µM: 91.4%
SARS-CoV-2 3CL^pro; concentration 10000.00 nM, read-out: inhibition ratio (%)
  inhibition at 10 µM: 94.8%

Reference: publication PMC10575921 (Nature Communications, 2023)
